Data reported in patent publication US9475819B2, “Substituted 7-azabicycles and their use as orexin receptor modulators” (Janssen Pharmaceutica NV, priority 2013, dated 2016).

Key:
human orexin 1 receptor = human orexin 1 receptor (Homo sapiens (Human), UniProt O43613); test: Human orexin 1 receptor radioligand binding ([3H]-SB674042 competition, CHO cells); conditions: [3H]-SB674042 competition binding, read-out: hOX1 Ki
human orexin 2 receptor = human orexin 2 receptor (Homo sapiens (Human), UniProt O43614); test: Human orexin 2 receptor radioligand binding ([3H]-EMPA competition, HEK293 cells); conditions: [3H]-EMPA competition binding, read-out: hOX2 Ki
human orexin 2 receptor, sequence (O43614 whole entry): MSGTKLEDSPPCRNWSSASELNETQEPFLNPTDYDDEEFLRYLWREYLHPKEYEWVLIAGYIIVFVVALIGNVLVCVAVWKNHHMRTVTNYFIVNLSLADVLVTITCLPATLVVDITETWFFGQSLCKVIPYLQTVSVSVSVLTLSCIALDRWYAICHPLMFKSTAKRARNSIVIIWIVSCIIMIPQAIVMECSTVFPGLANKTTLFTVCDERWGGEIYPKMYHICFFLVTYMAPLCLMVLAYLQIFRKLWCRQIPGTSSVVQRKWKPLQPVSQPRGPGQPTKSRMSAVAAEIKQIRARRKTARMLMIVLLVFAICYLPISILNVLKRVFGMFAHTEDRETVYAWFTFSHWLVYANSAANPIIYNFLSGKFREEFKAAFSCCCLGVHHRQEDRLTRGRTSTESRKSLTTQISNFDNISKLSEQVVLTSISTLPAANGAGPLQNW

human orexin 1 receptor, sequence (O43613 whole entry): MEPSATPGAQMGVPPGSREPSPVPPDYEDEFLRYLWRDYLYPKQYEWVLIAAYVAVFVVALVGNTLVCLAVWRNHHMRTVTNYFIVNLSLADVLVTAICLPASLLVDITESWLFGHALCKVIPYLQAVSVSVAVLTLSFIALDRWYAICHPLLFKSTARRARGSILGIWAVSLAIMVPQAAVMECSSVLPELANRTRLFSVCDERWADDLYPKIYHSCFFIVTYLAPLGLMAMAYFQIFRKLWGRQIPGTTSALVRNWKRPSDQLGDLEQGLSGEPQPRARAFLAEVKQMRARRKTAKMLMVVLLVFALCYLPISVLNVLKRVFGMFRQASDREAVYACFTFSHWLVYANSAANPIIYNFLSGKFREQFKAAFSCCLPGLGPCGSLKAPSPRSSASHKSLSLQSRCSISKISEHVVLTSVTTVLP

SMILES	Ki (human orexin 1 receptor) [nM]	Ki (human orexin 2 receptor) [nM]
Cc1ccc(-n2nccn2)c(C(=O)N2C3CCC2C(Nc2ccc(C(F)(F)F)cn2)C3)n1 (racemic) [Example 187, (±)-(6-methyl-3-(2H-1,2,3-triazol-2-yl)pyridin-2-yl)(2-((5-(trifluoromethyl)pyridin-2-yl)amino)-7-azabicyclo[2.2.1]heptan-7-yl)methanone]	48	620
Cc1ccc(-n2nccn2)c(C(=O)N2[C@H]3CC[C@@H]2[C@@H](COc2ccc(F)cn2)C3)c1 (single isomer, unassigned) [Example 10B]		5150
